Source: patent US20260262643A1, “HERBICIDAL BENZOXAZINES” (FMC CORPORATION, priority 2022, published 2026)

What was measured:
ryegrass, Italian [1] = assay: Test A preemergence; type: in vivo, Lolium multiflorum; details: visual injury after 10 days, 0 to 100 scale, 0 is no effect, 100 is complete control
Summary of the method: (§1)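 Visual injury ratings on a 0–100 scale (100 = complete control) versus untreated controls, taken 10 days after treatment in greenhouse. Preemergence: directed soil spray onto seeded loam/sand. Postemergence: foliar application at one- to two-leaf stage, plants 2–10 cm. Formulation: non-phytotoxic solvent plus surfactant.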

oat, wild [2] = assay: Test A postemergence; type: in vivo, Avena fatua; details: postemergence, 10 days
Summary of the method: as §1

rice = assay: Test B flooded paddy test; type: in vivo, Oryza sativa; details: 250 g ai/ha, Flood, 13 days, 0 to 100 scale (0 no effect, 100 complete control)
Summary of the method: (§2)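 2-leaf stage; pots flooded 3 cm over soil; compound dosed into paddy water; depth kept constant. Greenhouse, 13 d. Visual rating vs controls, 0 (no effect)–100 (complete control). Dash = no result.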

blackgrass [3] = assay: Test A postemergence; type: in vivo, Alopecurus myosuroides; details: postemergence, 10 days
Summary of the method: as §1

foxtail, giant [4] = assay: Test A postemergence; type: in vivo, Setaria faberi; details: postemergence, 10 days
Summary of the method: as §1

galium = assay: Test A postemergence; type: in vivo, Galium aparine; details: postemergence, 10 days
Summary of the method: as §1

oat, wild [5] = assay: Test A preemergence; type: in vivo, Avena fatua; details: visual injury after 10 days, 0 to 100 scale, 0 is no effect, 100 is complete control
Summary of the method: as §1

pigweed, palmer [6] = assay: Test A postemergence; type: in vivo, Amaranthus palmeri; details: postemergence, 10 days
Summary of the method: as §1

barnyardgrass [7] = assay: Test A postemergence; type: in vivo, Echinochloa crusgalli; details: postemergence, 10 days
Summary of the method: as §1

barnyardgrass [8] = assay: Test A preemergence; type: in vivo, Echinochloa crusgalli; details: visual injury after 10 days, 0 to 100 scale, 0 is no effect, 100 is complete control
Summary of the method: as §1

barnyardgrass [9] = assay: Test B flooded paddy test; type: in vivo, Echinochloa crus-galli; details: 250 g ai/ha, Flood, 13 days, 0 to 100 scale (0 no effect, 100 complete control)
Summary of the method: as §2

kochia [10] = assay: Test A postemergence; type: in vivo, Bassia scoparia; details: postemergence, 10 days
Summary of the method: as §1

horseweed = assay: Test A postemergence; type: in vivo, Erigeron canadensis; details: postemergence, 10 days
Summary of the method: as §1

corn [11] = assay: Test A preemergence; type: in vivo, Zea mays; details: visual injury after 10 days, 0 to 100 scale, 0 is no effect, 100 is complete control
Summary of the method: as §1

foxtail, giant [12] = assay: Test A preemergence; type: in vivo, Setaria faberi; details: visual injury after 10 days, 0 to 100 scale, 0 is no effect, 100 is complete control
Summary of the method: as §1

soybean [13] = assay: Test A postemergence; type: in vivo, Glycine max; details: postemergence, 10 days
Summary of the method: as §1

ragweed [14] = assay: Test A postemergence; type: in vivo, Ambrosia artemisiifolia; details: postemergence, 10 days
Summary of the method: as §1

blackgrass [15] = assay: Test A preemergence; type: in vivo, Alopecurus myosuroides; details: visual injury after 10 days, 0 to 100 scale, 0 is no effect, 100 is complete control
Summary of the method: as §1

wheat [16] = assay: Test A preemergence; type: in vivo, Triticum aestivum; details: visual injury after 10 days, 0 to 100 scale, 0 is no effect, 100 is complete control
Summary of the method: as §1

pigweed, palmer [17] = assay: Test A preemergence; type: in vivo, Amaranthus palmeri; details: visual injury after 10 days, 0 to 100 scale, 0 is no effect, 100 is complete control
Summary of the method: as §1

kochia [18] = assay: Test A preemergence; type: in vivo, Bassia scoparia; details: visual injury after 10 days, 0 to 100 scale, 0 is no effect, 100 is complete control
Summary of the method: as §1

ryegrass, Italian [19] = assay: Test A postemergence; type: in vivo, Lolium multiflorum; details: postemergence, 10 days
Summary of the method: as §1

corn [20] = assay: Test A postemergence; type: in vivo, Zea mays; details: postemergence, 10 days
Summary of the method: as §1

ragweed [21] = assay: Test A preemergence; type: in vivo, Ambrosia artemisiifolia; details: visual injury after 10 days, 0 to 100 scale, 0 is no effect, 100 is complete control
Summary of the method: as §1

soybean [22] = assay: Test A preemergence; type: in vivo, Glycine max; details: visual injury after 10 days, 0 to 100 scale, 0 is no effect, 100 is complete control
Summary of the method: as §1

sedge, umbrella = assay: Test B flooded paddy test; type: in vivo, Cyperus difformis; details: 250 g ai/ha, Flood, 13 days, 0 to 100 scale (0 no effect, 100 complete control)
Summary of the method: as §2

ducksalad = assay: Test B flooded paddy test; type: in vivo, Heteranthera limosa; details: 250 g ai/ha, Flood, 13 days, 0 to 100 scale (0 no effect, 100 complete control)
Summary of the method: as §2

wheat [23] = assay: Test A postemergence; type: in vivo, Triticum aestivum; details: postemergence, 10 days
Summary of the method: as §1

[24] = 125 g ai/ha, 0 to 100 scale, 0 no effect, 100 complete control
[25] = 500 g ai/ha, visual injury, 0 to 100 scale (0 no effect, 100 complete control)

For C[C@H]1CN(C(=O)c2cc(Br)cc(-n3cncn3)c2)c2cccc(Cl)c2O1 [Compound 114], the “Plant response rating, Ryegrass, Italian” value (ryegrass, Italian [1]; 125 g ai/ha) was 50, the “Plant response rating, Ryegrass, Italian” value (ryegrass, Italian [1]; 500 g ai/ha) was 90 and the “Oat, Wild plant response rating” value (oat, wild [2]; [24]) was 0. For the same compound, the “Plant response rating, Oat, Wild” value (oat, wild [2]; [25]) was 40, the “Plant response rating, Rice” value (rice) was 0 and the “Blackgrass plant response rating” value (blackgrass [3]; [24]) was 50. For the same compound, the “Plant response rating, Blackgrass” value (blackgrass [3]; [25]) was 90, the “Foxtail, Giant plant response rating” value (foxtail, giant [4]; [24]) was 70 and the “Plant response rating, Foxtail, Giant” value (foxtail, giant [4]; [25]) was 90. For the same compound, the “Galium plant response rating” value (galium; [24]) was 60, the “Plant response rating, Galium” value (galium; [25]) was 70 and the “Plant response rating, Oat, Wild” value (oat, wild [5]; 125 g ai/ha) was 0. The “Plant response rating, Oat, Wild” value (oat, wild [5]; 500 g ai/ha) was 20, the “Pigweed, Palmer plant response rating” value (pigweed, palmer [6]; [24]) was 40 and the “Plant response rating, Pigweed, Palmer” value (pigweed, palmer [6]; [25]) was 100. The “Barnyardgrass plant response rating” value (barnyardgrass [7]; [24]) was 10, the “Plant response rating, Barnyardgrass” value (barnyardgrass [7]; [25]) was 70 and the “Plant response rating, Barnyardgrass” value (barnyardgrass [8]; 125 g ai/ha) was 30. For the same compound, the “Plant response rating, Barnyardgrass” value (barnyardgrass [8]; 500 g ai/ha) was 90, the “Plant response rating, Barnyardgrass” value (barnyardgrass [9]) was 0 and the “Kochia plant response rating” value (kochia [10]; [24]) was 40. For the same compound, the “Plant response rating, Kochia” value (kochia [10]; [25]) was 80, the “Horseweed plant response rating” value (horseweed; [24]) was 0 and the “Plant response rating, Horseweed” value (horseweed; [25]) was 0. The “Plant response rating, Corn” value (corn [11]; 125 g ai/ha) was 0, the “Plant response rating, Corn” value (corn [11]; 500 g ai/ha) was 0 and the “Plant response rating, Foxtail, Giant” value (foxtail, giant [12]; 125 g ai/ha) was 80. For the same compound, the “Plant response rating, Foxtail, Giant” value (foxtail, giant [12]; 500 g ai/ha) was 100, the “Soybean plant response rating” value (soybean [13]; [24]) was 60 and the “Plant response rating, Soybean” value (soybean [13]; [25]) was 100. For the same compound, the “Ragweed plant response rating” value (ragweed [14]; [24]) was 0, the “Plant response rating, Ragweed” value (ragweed [14]; [25]) was 0 and the “Plant response rating, Blackgrass” value (blackgrass [15]; 125 g ai/ha) was 30. The “Plant response rating, Blackgrass” value (blackgrass [15]; 500 g ai/ha) was 70, the “Plant response rating, Wheat” value (wheat [16]; 125 g ai/ha) was 20 and the “Plant response rating, Wheat” value (wheat [16]; 500 g ai/ha) was 50. The “Plant response rating, Pigweed, Palmer” value (pigweed, palmer [17]; 125 g ai/ha) was 50, the “Plant response rating, Pigweed, Palmer” value (pigweed, palmer [17]; 500 g ai/ha) was 90 and the “Plant response rating, Kochia” value (kochia [18]; 125 g ai/ha) was 0. The “Plant response rating, Kochia” value (kochia [18]; 500 g ai/ha) was 20, the “Ryegrass, Italian plant response rating” value (ryegrass, Italian [19]; [24]) was 50 and the “Plant response rating, Ryegrass, Italian” value (ryegrass, Italian [19]; [25]) was 70. For the same compound, the “Corn plant response rating” value (corn [20]; [24]) was 50, the “Plant response rating, Corn” value (corn [20]; [25]) was 80 and the “Plant response rating, Ragweed” value (ragweed [21]; 125 g ai/ha) was 0. The “Plant response rating, Ragweed” value (ragweed [21]; 500 g ai/ha) was 0, the “Plant response rating, Soybean” value (soybean [22]; 125 g ai/ha) was 0 and the “Plant response rating, Soybean” value (soybean [22]; 500 g ai/ha) was 0. For the same compound, the “Plant response rating, Sedge, Umbrella” value (sedge, umbrella) was 0, the “Plant response rating, Ducksalad” value (ducksalad) was 0 and the “Wheat plant response rating” value (wheat [23]; [24]) was 10. The “Plant response rating, Wheat” value (wheat [23]; [25]) was 40.
